Assay results as given in USRE48267E1, “Variants of C-type natriuretic peptide” (priority 2009, dated 2020).
Read-outs that look alike come from different tables or passages of the source.

Assays:
Recombinant human NEP = Recombinant human NEP (Homo sapiens, UniProt P08473); test: in vitro NEP cleavage assay (disappearance of non-cleaved CNP variant)
Procedure, shortened: (§1)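 Recombinant human NEP (1 ug/mL final) incubated with 100 uM CNP variant in 0.1 M Tris, pH 7, at 37° C for various times, then quenched with EDTA (10 mM final) and heat. Samples reduced and analysed by HPLC and mass spectrometry. Half-life derived from loss of intact variant over time.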

[1] = molecular target: neutral endopeptidase (NEP) (Homo sapiens, UniProt P08473); test: in vitro; conditions: human, pH 7
Procedure, shortened: as §1

wild type mice = conditions: mouse, in vivo
[2] = IgG assay (immunogenicity) in mice; conditions: wild-type mice, 5 weeks
Protocol: An IgG assay was performed to assess whether an IgG immune response was triggered by 5 week exposure of achondroplastic FGFR3^ach mice to CNP22, CNP37 or PEO24-GANRR-CNP22(K4R) (“CNP27-PEO24”) (SEQ ID NO: 36). IgG is the most predominant immunoglobulin in mouse and human serum and is produced as part of the secondary immune response to an antigen. The IgG response to administration of the CNP peptides was determined as follows. 96-well plates were coated with 100 ng/mL CNP22, CNP37 or PEO24-GANRR-CNP22(K4R) (SEQ ID NO: 36) in BupH PBS buffer (Pierce/Thermo, Cat. No. 28372, Rockford, Ill.). After overnight incubation, plates were blocked with Casein-PBS blocking buffer (Pierce/Thermo, Cat. No. 37528) for two hours at room temperature with shaking at 300 rpm. After washing with wash buffer (1×PBS with 0.05% Tween), diluted serum samples from a terminal bleed (diluted 1:25) were added to the plate. Positive and negative controls were also loaded onto the plate. Positive control was 1:25 diluted serum (pooled from 6 individual FVB mice) with anti-CNP22 antibody added (Bachem rabbit anti-CNP22 IgG, Cat. No. T-4222) at 1:1000 dilution. Negative control was the diluted pooled serum. After two hours of incubation, the plates were washed and secondary antibody diluted in blocking buffer was added to the wells. For the mouse serum samples, anti-mouse IgG Fcγ (peroxidase-conjugated affinipure goat anti-mouse IgG, Fcγ fragment, Cat. No. 115-035-071, Jackson Immunoresearch, West Grove, Pa.) was added at a 1:10,000 dilution. For the positive and negative controls, anti-rabbit IgG-HRP (Santa Cruz Biotechnology, Cat. No. SC-2004, Santa Cruz, Calif.) was added to blocking buffer. After two hours of incubation at room temperature with shaking at 300 rpm, plates were washed with wash buffer. 100 uL of TMB (One-step TMB, Pierce/Thermo, Cat. No. 34022) was added to all wells. Plates were incubated at room temperature for 15 minutes with shaking at 300 rpm. Colorimetric reactions were stopped by the addition of 100 uL of 2 N H2SO4. Plates were read at 450 nm (Spectramax, Molecular Devices, Sunnyvale, Calif.) and data was analyzed using SoftMax Pro software (Molecular Devices).
The immunogenic response of wild-type mice administered G-CNP37, PEO12-GANRR-CNP22(K4R) (SEQ ID NO: 36) or Pro-Gly-CNP37, as measured by an increase in serum IgG level, was also assessed by examining terminal bleed serum samples as described above.

wild-type FVB mice = conditions: mouse, in vivo
Source text: Group 1 included vehicle-treated mice injected s.c. daily for 9 weeks followed by 1 week of no treatment. Group 2 included mice treated with Pro-Gly-CNP37 (20 nmol/kg) once daily for 1 week, followed by three doses per week for 8 weeks, followed by 1 week of no treatment. Group 3 contained mice treated with Pro-Gly-CNP37 (20 nmol/kg) once daily in alternate weeks (weeks 1, 3, 5, 7 and 9), with 1 week of no treatment following each week of treatment. Group 4 contained mice treated with Pro-Gly-CNP37 (5 nmol/kg) once daily for 9 weeks followed by 1 week of no treatment. Finally, Group 5 included mice treated with Pro-Gly-CNP37 (5 nmol/kg) once daily for 5 weeks without any week of no treatment. Terminal bleed serum was collected from the mice, and cleaved collagen type II, total alkaline phosphatase and total antibody levels were measured therefrom. Cleaved collagen type II levels were measured as described above. Total alkaline phosphatase levels, predominantly from the liver and bones, were measured with the assistance of a veterinary diagnostic laboratory testing facility (Antech). […] Among the advantages of the ECLA platform, any isotype of antibody (IgG, IgM, etc.) can be detected, and the ECLA assay is species-independent. […] At the end of the 1 hour incubation, the MSD plate was washed and 150 uL of 2× read buffer (MSD Cat. No. R92TC-2) was added to the plate. […]

wild type FVB mice = test: dose responses of CNP variants in wild type FVB mice; conditions: mouse, in vivo
Protocol: Tail length and body weight were measured over the course of treatment. Animals were sacrificed at the end of the experiment and bone length assessed.

Sequence of Recombinant human NEP (P08473 whole entry): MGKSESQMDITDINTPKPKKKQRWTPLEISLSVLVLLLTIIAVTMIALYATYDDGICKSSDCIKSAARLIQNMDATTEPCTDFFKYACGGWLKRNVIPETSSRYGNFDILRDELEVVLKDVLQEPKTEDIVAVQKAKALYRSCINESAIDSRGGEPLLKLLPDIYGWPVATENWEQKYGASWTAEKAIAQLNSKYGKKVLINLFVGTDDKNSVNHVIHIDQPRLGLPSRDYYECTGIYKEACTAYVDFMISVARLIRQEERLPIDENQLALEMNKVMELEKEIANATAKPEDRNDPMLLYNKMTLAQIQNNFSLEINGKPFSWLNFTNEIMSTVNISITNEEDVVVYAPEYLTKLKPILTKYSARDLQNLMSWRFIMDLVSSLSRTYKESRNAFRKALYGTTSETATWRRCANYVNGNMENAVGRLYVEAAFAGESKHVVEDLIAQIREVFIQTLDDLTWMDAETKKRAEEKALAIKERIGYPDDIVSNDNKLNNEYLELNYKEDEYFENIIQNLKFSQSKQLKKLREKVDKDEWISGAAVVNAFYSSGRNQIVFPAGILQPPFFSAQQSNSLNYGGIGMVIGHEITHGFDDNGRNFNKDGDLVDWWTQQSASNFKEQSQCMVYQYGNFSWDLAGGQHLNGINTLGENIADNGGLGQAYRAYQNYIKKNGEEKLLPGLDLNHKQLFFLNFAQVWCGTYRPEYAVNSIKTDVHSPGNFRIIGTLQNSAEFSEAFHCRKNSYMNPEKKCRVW
Sequence of neutral endopeptidase (NEP) (P08473 whole entry): as above

In the case of CC[C@H](C)[C@@H]1NC(=O)[C@H](CCCNC(=N)N)NC(=O)[C@H](CC(=O)O)NC(=O)[C@H](CC(C)C)NC(=O)[C@H](CCCCN)NC(=O)[C@H](CC(C)C)NC(=O)CNC(=O)[C@H](Cc2ccccc2)NC(=O)[C@@H](NC(=O)CNC(=O)[C@H](CCCCN)NC(=O)[C@H](CO)NC(=O)[C@H](CC(C)C)NC(=O)CNC(=O)[C@H](CCCCN)NC(=O)[C@H](CCCCN)NC(=O)[C@H](CC(N)=O)NC(=O)[C@H](C)NC(=O)CNC(=O)[C@H](CCCCN)NC(=O)[C@H](Cc2ccccc2)NC(=O)[C@H](CCCNC(=N)N)NC(=O)[C@H](Cc2c[nH]cn2)NC(=O)[C@H](C)NC(=O)[C@@H](NC(=O)[C@H](CCC(=O)O)NC(=O)[C@H](CO)NC(=O)[C@H](CCCCN)NC(=O)[C@H](Cc2c[nH]cn2)NC(=O)CN)C(C)C)CSSC[C@@H](C(=O)O)NC(=O)CNC(=O)[C@H](CC(C)C)NC(=O)CNC(=O)[C@H](CO)NC(=O)[C@H](CCSC)NC(=O)[C@H](CO)NC(=O)CNC1=O [HSA-CNP27], the “resistance to NEP cleavage (in words)” value (Recombinant human NEP) was “most resistant to NEP degradation”, the half-life at 100 uM [1] was greater than 2.67 h and the “anti-CNP antibodies (IgG antibody response)” value (wild type mice) was “elicited and IgG antibody response”.

In the case of CC[C@H](C)[C@@H]1NC(=O)[C@H](CCCNC(=N)N)NC(=O)[C@H](CC(=O)O)NC(=O)[C@H](CC(C)C)NC(=O)[C@H](CCCCN)NC(=O)[C@H](CC(C)C)NC(=O)CNC(=O)[C@H](Cc2ccccc2)NC(=O)[C@@H](NC(=O)CNC(=O)[C@H](CCCCN)NC(=O)[C@H](CO)NC(=O)[C@H](CC(C)C)NC(=O)CNC(=O)[C@H](CCCCN)NC(=O)[C@H](CCCCN)NC(=O)[C@H](CC(N)=O)NC(=O)[C@H](C)NC(=O)CNC(=O)[C@H](CCCCN)NC(=O)[C@H](Cc2ccc(O)cc2)NC(=O)[C@H](CCCCN)NC(=O)[C@H](CCCNC(=N)N)NC(=O)[C@H](C)NC(=O)[C@H](CC(N)=O)NC(=O)[C@@H]2CCCN2C(=O)[C@H](Cc2c[nH]cn2)NC(=O)[C@H](CCC(=O)O)NC(=O)[C@H](CCC(N)=O)NC(=O)CNC(=O)[C@@H]2CCCN2)CSSC[C@@H](C(=O)O)NC(=O)CNC(=O)[C@H](CC(C)C)NC(=O)CNC(=O)[C@H](CO)NC(=O)[C@H](CCSC)NC(=O)[C@H](CO)NC(=O)CNC1=O [Pro-Gly-CNP37], the “resistance to NEP cleavage (in words)” value (Recombinant human NEP; in vitro NEP assay, assay period 160 minutes) was “most resistant to NEP degradation”, the half-life at 100 uM [1] was greater than 2.67 h and the IgG immune response [2] was “None of the wild-type mice”. The “antibody response in the total antibody assay” value (wild-type FVB mice) was “did not show a positive antibody response” and the “organ weight compared with vehicle treated animals” value (wild type FVB mice) was “no significant changes”.
